The target in the test is T1, Sodium/glucose cotransporter 2 (Homo sapiens, UniProt P31639).
T1 sequence (P31639 whole entry): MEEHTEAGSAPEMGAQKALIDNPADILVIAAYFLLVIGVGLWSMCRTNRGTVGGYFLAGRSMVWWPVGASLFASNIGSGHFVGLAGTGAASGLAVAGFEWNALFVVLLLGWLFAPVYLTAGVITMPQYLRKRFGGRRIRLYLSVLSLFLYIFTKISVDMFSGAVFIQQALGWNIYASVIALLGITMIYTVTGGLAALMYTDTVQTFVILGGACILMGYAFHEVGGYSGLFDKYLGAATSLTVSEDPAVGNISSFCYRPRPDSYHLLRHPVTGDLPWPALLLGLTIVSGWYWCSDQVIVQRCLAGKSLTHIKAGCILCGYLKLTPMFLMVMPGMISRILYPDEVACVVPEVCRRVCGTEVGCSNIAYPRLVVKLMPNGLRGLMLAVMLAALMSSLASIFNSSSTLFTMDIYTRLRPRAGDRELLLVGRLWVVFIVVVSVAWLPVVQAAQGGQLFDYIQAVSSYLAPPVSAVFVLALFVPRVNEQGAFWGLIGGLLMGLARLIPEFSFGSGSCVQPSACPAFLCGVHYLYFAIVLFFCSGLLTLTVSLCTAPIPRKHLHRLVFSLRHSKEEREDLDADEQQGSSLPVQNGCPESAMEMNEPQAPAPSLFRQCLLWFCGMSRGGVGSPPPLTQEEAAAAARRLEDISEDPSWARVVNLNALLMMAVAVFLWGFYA
In words: Inhibition Assay: For sodium-dependent glucose transport assay, cells expressing hSGLT2 were seeded into a 96-well culture plate at a density of 5x10^4 cells/well in RPMI medium 1640 containing 10% fetal bovine serum. The cells were used 1 day after plating. They were incubated in pretreatment buffer (10 mM HEPES, 5 mM Tris, 140 mM choline chloride, 2 mM KCl, 1 mM CaCl2, and 1 mM MgCl2, pH 7.4) at 37 C. for 10 min. They were then incubated in uptake buffer (10 mM HEPES, 5 mM Tris, 140 mM NaCl, 2 mM KCl, 1 mM CaCl2, 1 mM MgCl2, and 1 mM 14C-nonlabeled AMG pH 7.4) containing 14C-labeled AMG (8 uM) and the inventive compound or dimethyl sulfoxide (DMSO) vehicle at 37 C. for 2 h. Cells were washed twice with washing buffer (pretreatment buffer containing 10 mM AMG at room temperature) and then the radioactivity was measured using a liquid scintillation counter. IC50 was determined by nonlinear regression analysis using GraphPad PRISM [Katsuno, K. et al. J. Pharmacol. Exp. Ther. 2007, 320, 323-330].

The structures appear in SMILES notation.

As usually defined, the IC50 is the concentration at which inhibition is half-maximal.

As to `OC[C@H]1O[C@@H](c2cc(Cc3ccc(N4CCC4)cc3)c(Cl)c3c2CCC3)[C@H](O)[C@@H](O)[C@@H]1O`, the IC50 worked out at 1.75 nM.

In the case of `CCOc1ccc(Cc2cc([C@@H]3O[C@H](CO)[C@@H](O)[C@H](O)[C@H]3O)c3c(c2C2CC2)OCC3)cc1`, the IC50 worked out at 13.8 nM.

For the molecule `OC[C@H]1O[C@@H](c2cc(Cc3ccc(N4CCC4)cc3)c(Cl)c3c2CCO3)[C@H](O)[C@@H](O)[C@@H]1O`, the IC50 is 3.49 nM.

For `CCOc1ccc(Cc2cc([C@@H]3O[C@H](CO)[C@@H](O)[C@H](O)[C@H]3O)c3c(c2Cl)OCO3)cc1`, the IC50 came to 1.08 nM.

Regarding `CCOc1ccc(Cc2cc([C@@H]3O[C@H](CO)[C@@H](O)[C@H](O)[C@H]3O)c3c(c2Cl)NCCO3)cc1`, the IC50 turned out to be 2.42 nM.

Source of the values: ChEMBL document CHEMBL3639134, “Diphenylmethane derivatives as SGLT2 inhibitors” (2015).
